2 substances from patent US20020151467A1 (priority 2000, published 2002) can be followed below.

Holding throughout (assay type): in vivo
Data set [1] relates to nondiabetic rats. Kind of data set: Transdermal insulin (Dermulin) vs subcutaneous insulin injection, blood glucose in rats. The following applies: for Percent of glucose reduction compared to initial levels: Group 4: subcutaneous 12.5 u insulin. How it is done:
All rats weighed 50-80 gms, aged 1 month. Group 1 (control—placebo): 6 rats, Group 2 (Dermulin™, 12.5 u): 5 rats, Group 3 (Dermulin™, 25 u): 5 rats, Group 4 (subcutaneous injection): 5 rats.
All rats were fasted 2 hrs before experiments. They were lightly anesthesized by ether. Neck skin was dissected and jugular vein was exposed. 0.1 ml of blood was drawn at time 0, 5, 10, 15, 30, 60, 90, 120, 150, 180, 210, 240, 270, 300 minutes for glucose measurement by Abbott's Precision glucose monitor. Hair was shaved from the abdomen. Group 2 and Group 3 had 12.5 u and 25 u of Dermulin™ applied to the abdominal skin respectively.
All data were analyzed using SAS system, Version 6.12. in 2 ways: 1) Simultaneous comparison of multiple groups by Dunnett's t test at 5% significance level. 2) Comparison of slopes of the glucose reduction rate by repeated measures analysis of variance method by the” Mixed Procedure” of the SAS system software.

The subject of data set [2] is nondiabetic rats. Kind of data set: Hypoglycemic efficacy of oral insulin (Musulin) compared to subcutaneous and intraperitoneal injections in rats. The following applies: 1.67 unit every 5 minutes. The protocol: All rats weighed 50-80 gms, age of the rats was 1 month. Group 1 (control—placebo): 6 rats; Group 2 (Musulin™): 6 rats; Group 3 (Musulin™): 5 rats; Group 4 (Musulin™): 5 rats; Group 5 (intraperitoneal injection): 5 rats; and Group 6 (subcutaneous injection): 5 rats. All rats were fasted 2 hrs before experiments. They were lightly anesthesized by ether. Neck skin was dissected and the jugular vein was exposed. 0.1 ml of blood was drawn at times 0, 5, 10,15, 30, 60, 90, 120, 150, 180, 210, 240, 270, 300 minutes for glucose measurement by Abbott's Precision glucose monitor. In order to ensure the maximal exposure and absorption of Musulin™ in the rats' tiny oral cavities, the rats were fed constant amounts at preset time periods. […] Group 3 received 3.33 units and Group 4 received 6.67 units every 5 minutes.
All data were analysed using SAS system, Version 6.12. in 2 ways: 1) Simultaneous comparison of multiple groups by Dunnett's t test at 5% significance level. 2) Comparison of slopes of the glucose reduction rate by repeated measures analysis of variance method by the “Mixed Procedure” of the SAS system software.

For data set [3], the system named is nondiabetic rats. Put plainly: Transdermal insulin (Dermulin) vs intraperitoneal insulin injection, blood glucose in rats. The settings on record: for Percent of glucose reduction: Group 4: intraperitoneal 12.5 u insulin. How it is done: All rats weighed 50-80 gms, aged 1 month. Group 1 (control—placebo): 6 rats, Group 2 (Dermulin™, 12.5 u): 5 rats, Group 3 (Dermulin™, 25 u): 5 rats, Group 4 (intraperitoneal injection): 5 rats.
All rats were fasted 2 hrs before experiments. They were lightly anesthesized by ether. Neck skin was dissected and jugular vein was exposed. 0.1 ml of blood was drawn at time 0, 5, 10, 15, 30, 60, 90, 120, 150, 180, 210, 240, 270, 300 minutes for glucose measurement by Abbott's Precision glucose monitor. Hair was shaved from the abdomen. Group 2 and Group3 had 12.5 u and 25 u of Dermulin™ applied to the abdominal skin respectively.
All data were analyzed using SAS system, Version 6.12. in 2 ways: 1) Simultaneous comparison of multiple groups by Dunnett's t test at 5% significance level. 2) Comparison of slopes of the glucose reduction rate by repeated measures analysis of variance method by the “Mixed Procedure” of the SAS system software.

The mark [4] stands for this setting: Group 4: single subcutaneous injection of 12.5 u insulin.
The mark [5] stands for this setting: Group 6: subcutaneous insulin injection.
[6] abbreviates: Group 4: single intraperitoneal injection of 12.5 u insulin.
[7] abbreviates: Group 5: intraperitoneal insulin injection.

As for “subcutaneous injection: injection control: insulin (Humalog) by subcutaneous injection”, the “Rate of glucose reduction at the slope between 30-120 min.” value in data set [1] (setting [4]) was -0.5 mg/min. Besides, the results for the “Statistically significant onset of action” value in data set [1] (setting [4]) and in data set [2] (setting [5]) were 5 min and 10 min, respectively. Further, the “Percent of glucose reduction compared to initial levels” value in data set [1] (at 60 minutes) is listed as 28 (s.d. 13.4) Percent; in data set [1] (at 120 minutes) it was 21.9 (s.d. 13) Percent; in data set [1] (at 180 minutes) it was 17.2 (s.d. 14.1) Percent; in data set [1] (at 300 minutes) it was 0%. In addition, the “Death from hypoglycemia within 300 minutes” value in data set [2] (setting [5]) stood at 100%. The “Rate of glucose reduction at the maximal slope” value in data set [2] (setting [5]) was -0.51 mg/min. The “time for 50% rats to achieve 50% glucose reductions” value in data set [2] (setting [5]) was 15 min. The “Percent mean reduction of glucose compared to initial levels” value in data set [2] (Group 6: subcutaneous insulin injection, at 60 minutes) was 39.8 (25.5) Percent; in data set [2] (Group 6: subcutaneous insulin injection, at 120 minutes) it was 25.5 (s.d. 31.7) Percent; in data set [2] (Group 6: subcutaneous insulin injection, at 300 minutes) it was 41.1%.
As to “intraperitoneal injection: injection control: insulin given intraperitoneally”, the “Percent of glucose reduction” value in data set [3] (at 60 minutes) is recorded as 26.1 (s.d. 13.4) Percent; in data set [3] (at 120 minutes) it was 16.5 (s.d. 13) Percent; in data set [3] (at 180 minutes) it was 25.8 (s.d. 14.1) Percent; in data set [3] (at 300 minutes) it was 27.8 (s.d. 33.6) Percent. The “Rate of glucose reduction at the slope” value in data set [3] (setting [6]) is -0.5 mg/min. Besides, the “Statistically significant onset of action” value came out at 5 min in data set [3] (setting [6]) and 10 min in data set [2] (setting [7]). For the same substance, the “Death from hypoglycemia within 300 minutes” value in data set [2] (setting [7]) is on record as 80%. Also, the “Rate of glucose reduction at the maximal slope” value in data set [2] (setting [7]) was -0.54 mg/min. The “time for 50% rats to achieve 50% glucose reductions” value in data set [2] (setting [7]) worked out at 13 min. In addition, the “Percent mean reduction of glucose compared to initial levels” value was 30.4 (s.d. 3.8) Percent in data set [2] (Group 5: intraperitoneal insulin injection, at 60 minutes); 18.7 (s.d. 15.2) Percent in data set [2] (Group 5: intraperitoneal insulin injection, at 120 minutes); 0 (s.d. 0) Percent in data set [2] (Group 5: intraperitoneal insulin injection, at 300 minutes).
